The structures appear in SMILES notation.

As for `O=C(O)C1Cc2ccccc2N1C(=O)CCSSCCC(=O)N1c2ccccc2CC1C(=O)O` (stereo not drawn), the melting point was 213 to 216 °C. In turn, `CCCCNc1nc2cccc(C(=O)OC)c2n1Cc1ccc(-c2ccccc2-c2nnn[nH]2)cc1` showed a melting point of 163 to 167 °C.

For the compound `CC(C)(C)C(=O)OC1CCC2C3(O)C=CC4=CC(=O)CCC4(CO)C3CCC12C` (stereo not drawn), the melting point lay within 201 to 203 °C. Turning to `CCOC(=O)c1[nH]c2cc(F)c(Cl)cc2c1Sc1cc(C)cc(C)c1`, the melting point lay in the range of 170 to 173 °C. The result for `CCCCN(Cc1ccc(-c2ccccc2-c2nc(=O)o[nH]2)cc1)c1ncccc1C(=O)OCC` reads 146 to 147 °C. Compound `CCn1cc(F)c(N=CN(C)C)nc1=O` yielded a melting point of 157 to 160 °C. For the compound `CON=CCOc1ccccc1S(N)(=O)=O`, the melting point was 103 to 105 °C. As for `CCOC(=O)C1CCCN(c2ccc([N+](=O)[O-])c(C=C3NC(=O)NC3=O)c2)C1` (stereo not drawn), the melting point was 223 to 225 °C. For the compound `CCOC(=O)c1c(N)c2cccnc2n(CC(C)C)c1=O`, the melting point lay in the range of 157 to 159 °C. For `O=C1c2cc(Cl)c(Cl)cc2-c2cc(O)cc3cccc1c23` the value was 355 to 360 °C. With `CCCCC(C(N)=O)n1ccnc1` (stereo not drawn), the melting point was in the range of 90 to 91 °C. For `Clc1nc(Cl)c2occc2n1`, the melting point stood at 107 °C. The compound `CCCc1c2ccccc2c(O)c2c(=O)cc(C(=O)OCC)oc12` showed a melting point of 148 to 150 °C.

In the case of `O=C(O)COc1ccc(SCc2cccc(OCc3ccc(Cl)c(C(F)(F)F)c3)c2)c2c1CCC2`, the melting point was 121 to 122 °C.

`COC1(c2cccc(S(=O)(=O)c3ccc4c(c3)sc(=O)n4C)c2)CCOCC1` yielded a melting point of 174 to 176 °C.

In turn, `CC(C)c1cc(Br)c(C(C)C)cc1S` returned a melting point of 72 to 75 °C. Consider `O=S(=O)(Cc1noc(-c2ccccc2)n1)c1ccc(CCNCC(O)c2ccc(OC(F)(F)F)cc2)cc1` (stereo not drawn), for which the melting point fell in the range of 125 to 127 °C. For `COc1cccc2nc(C(F)(F)F)oc(=O)c12` the value was 88 to 91 °C; for `CCOC(=O)C1CCN(c2nnc(NCc3ccc(OC)c(Cl)c3)c3cc([N+](=O)[O-])ccc23)CC1`, 208 to 210 °C; for `CC(C)(C)OC(=O)C1CC(c2ccc(N)cc2)CCN1` (stereo not drawn), 114 to 116 °C. As to `COC1CCN(c2cccc(-c3cnc4[nH]cc(C(=O)C(C)(C)C)c4n3)c2)C1` (stereo not drawn), the melting point fell in the range of 194 to 195 °C. With `CCCCCCOc1ccc(-c2ccc(-c3ccc(CCCC)s3)c(F)c2)cc1`, the melting point was 66 °C. For the compound `CCOC(=O)c1c(CN(CC)CC)nc2sc3c(c2c1-c1ccc(OC)c(OC)c1)CCN(C(C)=O)C3`, the melting point is 72 to 75 °C. Compound `Oc1ccccc1-c1ccncc1` showed a melting point of 218 to 220 °C. `C=C(C)Sc1oc2cc(OC)ccc2c(=O)c1-c1ccccc1` came in with a melting point of 117 to 118 °C. Turning to `O=C1c2ccncc2C(=O)c2c(Cl)ccc(F)c21`, the melting point fell in the range of 204 to 206 °C. In the case of `Cc1cc(-c2nnn(C)n2)cc(C)c1OCCCn1ncnc1C`, the melting point was 126 to 128 °C. As for `CO/C=C(/C(=O)OC)c1ccccc1COc1cccc(Br)n1`, the melting point lay within 64 to 65 °C. `CC(C)(O)[C@H](Cc1ccccc1)NC(=O)C(Cl)(Cl)Cl` returned a melting point of 88 °C. Compound `CCOC(=O)c1ccc(Nc2cc(C)nc3cn[nH]c23)cc1` yielded a melting point of 247 to 250 °C. `CC(=O)OC1CC2C3CCC(C(C)CCCC(C)C)C3(C)CCC2C2(C)CC(F)C(=O)CC12` (stereo not drawn) gave a melting point of 153 to 156 °C. Take `CN1C(=O)C2CC2(c2ccc(N)cc2)C1=O` (stereo not drawn): the melting point fell in the range of 137 to 139 °C. Take `NC(=O)C1(Cl)CC2C3CC4C2C4C31` (stereo not drawn): the melting point was in the range of 124 to 126 °C.

`O=S(=O)(NCCCCC1Cc2ccccc2C1)c1ccc(Cl)cc1`: the melting point worked out at 77 °C.

For `O=C(O)C(=O)CC(=O)c1cccn1Cc1cc(F)c(F)cc1F`, the melting point fell in the range of 154 to 156 °C.

Compound `C=C1N(CCC)C(=O)OC12CCN(Cc1ccccc1)CC2` registered a melting point of 70 to 71 °C. Consider `COc1c(C)cc(C)cc1C(N)=O`, for which the melting point lay in the range of 109 to 113 °C. `CCOC(=O)N1CCC(Nc2nc3cncnc3n2Cc2ccco2)CC1` came in with a melting point of 172 °C. Compound `C=Cc1ccc(C(=O)O)cc1C12CC3CC(CC(C3)C1)C2` displayed a melting point of 315 to 317 °C.

Turning to `CNC(=S)C1(c2ccccn2)CCCCS1` (stereo not drawn), the melting point stood at 153 °C. For `Cn1nnc2c(N3CCOCC3)nc(Cl)nc21` the value was 168 °C. Turning to `COC(=O)CC(NC(=O)OC(C)(C)C)c1ccc(O)cc1` (stereo not drawn), the melting point is 119 to 120 °C.

As to `CCOCCNc1nc(Cl)nc(Cl)n1`, the melting point was found to be 77 °C. Compound `CC1(C)C2CC[C@@]1(C)C(=O)C(C(=O)Nc1ccc(Cl)cc1)C2=O` (stereo partly drawn) came in with a melting point of 88 to 90 °C.

For `COc1ccc(-c2nc3c(O)cccc3s2)cc1`, the melting point was 128 to 130 °C. Compound `CC(=Cc1ccc(Oc2ccc(C)nc2)cc1)C(=O)O` registered a melting point of 211 to 214 °C. The result for `CCNc1nc(C)c(-c2ccnc(Nc3ccc(N4CCSCC4)cc3)n2)s1` reads 207 to 209 °C.

For the compound `CCCCc1nc2cnc3ccccc3c2n1CC1(O)CCOCC1`, the melting point was 180 to 181 °C.

Compound `O=C(O)c1cc(-n2c(-c3ccccc3)cc3c2CCCC3)ccc1S` returned a melting point of 186 to 188 °C. Compound `CCCC=Cc1c(C(C)C)nc(C(C)C)c(CO)c1-c1cccc(F)c1` showed a melting point of 117 to 118 °C. `CC(c1ccc2c(c1)Sc1ccccc1CC2)N(O)C(N)=O` (stereo not drawn) registered a melting point of 166 to 168 °C. The result for `Fc1ccc2c(c1)C1OC1c1ccccc1C2` (stereo not drawn) reads 239 °C; that for `CC(C)(C)C(O)C(=Cn1ccnc1)Oc1ccc(F)cc1` (stereo not drawn), 112 to 113 °C.

In the case of `O=C(Nc1ccc2ccc(-c3cccc(F)c3)nc2n1)c1cccc(Br)c1`, the melting point turned out to be 208 °C. `Cc1cc(-c2cccnc2)n2ncc(C(=O)c3ccccc3)c2n1` had a melting point of 196 to 198 °C. `COc1ccc(-c2cc3nccnc3[nH]2)cc1`: the melting point lay within 244 to 246 °C. Take `NC(=O)c1nc(-c2cccc(O)c2)nc2c1[nH]c(=O)n2-c1ccccc1Oc1ccccc1`: the melting point was 329 to 331 °C. As to `NC(=O)c1cc(-c2ccc(Cl)cc2)on1`, the melting point lay in the range of 224 to 225 °C.

`COc1ccccc1C=Cc1nc2c(c(=O)n(C)c(=O)n2C)n1C`: the melting point was in the range of 238 to 240 °C. `CCNC1CCN(c2c(F)cc3c(=O)c(C(=O)O)cn(CC)c3c2F)C1` (stereo not drawn) gave a melting point of 227 to 229 °C. `CCc1nn(-c2ccc3cc(-c4ccc([N+](=O)[O-])cc4)c(=O)oc3c2)nc1C` came in with a melting point of 278 to 279 °C. Compound `CCN(CC)CCN=C=S` showed a melting point of 83 to 83.5 °C. In the case of `COC(=O)C(C)(C(=O)O)N1C(=O)CCC(N2C(=O)c3ccccc3C2=O)C1=O` (stereo not drawn), the melting point was 143 to 146 °C. The compound `O=[N+]([O-])c1ccc(-c2cc3c(Nc4cccc(Cl)c4)ncnc3[nH]2)cc1` showed a melting point above 250 °C. For the compound `CCCCNc1nc(N)nc(N)n1`, the melting point is 167 °C.

The compound `CCCCN(CCCC)CCOc1ccc(C(=O)c2c(CC)cc3ccccn23)cc1` came in with a melting point of 116 °C. For `CSc1nc2nc(C)cc(-c3ccccc3)n2n1` the value was 121 to 123 °C; for `O=C(NCCCCC1N=C(c2ccccc2)OC1=O)OCc1ccccc1` (stereo not drawn), 72 to 73 °C; for `COC(=O)Cn1c(=O)[nH]c(=O)n(-c2cc(Oc3ccc(C(F)(F)F)c(Cl)c3)ccc2[N+](=O)[O-])c1=O`, 166 to 167 °C. The compound `O=C1c2ccccc2CN1CCOc1ccc(CO)cc1` gave a melting point of 106 to 107 °C. For `C#CC1(O)C(CO)OC(n2ccc(=O)[nH]c2=O)C1O` (stereo not drawn) the value was 226 to 228 °C. The compound `CCOC(=O)c1c(N)c2ccc(C)nc2n(CC)c1=O` displayed a melting point of 196 to 198 °C. For the compound `CC1Cc2ccccc2C1=NO` (stereo not drawn), the melting point fell in the range of 82 to 91 °C. For `Cc1cc(N)cc(C)c1NC(=O)CN1CCN(CCCC(c2ccc(F)cc2)c2ccc(F)cc2)CC1CO` (stereo not drawn), the melting point was 85.2 °C. `Cc1nc(C)c(Cl)c(NCc2nccc(SCCCSc3ncccn3)c2C)n1` showed a melting point of 158 to 159 °C. `c1ccc(-c2cc(N3CCNCC3)nc(-c3ccccn3)n2)nc1` had a melting point of 159 to 161 °C. For `Brc1cc(Br)c(-c2ccccc2)nn1` the value was 145 to 146 °C; for `CSc1c(SC)c(OC(C)=O)c2cc(Cl)ccc2c1OC(C)=O`, 113 to 114 °C.

As for `COc1cc(N=c2scc(-c3ccc(Cl)c(S(=O)(=O)N(C)C)c3)n2C)cc(OC)c1OC`, the melting point lay within 119 to 122 °C. Turning to `O=C(NCCO)/C(=C/c1ccc(C(F)(F)F)c(F)c1)NC(=O)c1ccc(OCCC(F)(F)F)cc1`, the melting point is 185 to 186 °C. As for `Nc1cc(-n2ccc(=O)cc2)ccc1[N+](=O)[O-]`, the melting point is 298 to 303 °C.

The compound `CCOc1cc(OCCCc2cn(-c3ccc(C(F)(F)F)cn3)nc2-c2ccccc2)ccc1CCC(=O)O` returned a melting point of 135 to 136 °C.

Compound `Oc1cnc2c(O)cccc2c1` registered a melting point of 139 to 141 °C. `N#Cc1cccc(OS(N)(=O)=O)c1` showed a melting point of 101 to 104 °C. For `O=C(NCCN1CCOCC1)c1ccc2nonc2c1` the value was 145 to 148 °C.

Compound `N#Cc1ccc(-c2ccc(OCCCCC(=O)NO)cc2)cc1` yielded a melting point of 142 to 143 °C. The result for `CC(=O)SCc1ccc(C#Cc2ccc(C=O)cc2)cc1` reads 128 to 129 °C; that for `CCOC(=O)c1ccc(CCC(=O)CO)cc1`, 51 to 52 °C. Consider `CCCc1nc(C#N)c(C#N)[nH]1`, for which the melting point was in the range of 141 to 144 °C. `Cc1ccc(-c2cc(N3CCCCC3)c(C#N)c3c2-c2ccccc2C3)cc1` yielded a melting point of 162 to 164 °C. The result for `FC(F)c1nc2ccccc2n1-c1nc(NCc2ccncc2)nc(N2CCOCC2)n1` reads 188 to 190 °C. The result for `CC(C)Oc1cc(-n2c(=O)c(F)c(C(F)(F)C(F)(F)F)n(C)c2=O)c(F)cc1Cl` reads 107 to 109 °C; that for `O=C(O)c1cc(N2CCN(Cc3ccccc3)CC2)ccc1[N+](=O)[O-]`, 172 °C.

In general, melting point refers to the temperature of the solid-liquid transition.

Source of the values: a melting point compilation (Tetko et al.; mined from patent text by program, amines drawn as free bases though some values may be those of a salt).
